Measured values as given in PubChem BioAssay AID212 (DTP/NCI, 2004).
Values joined by “and” are separate entries in the source; they are usually repeats but may differ in a detail not shown here. Equal entries are not always repeated. Records with an inconclusive call do not appear.

System: BDF1 mice, colon carcinoma 38 sc, T/C %
Experiment: NCI In Vivo Anticancer Drug Screen. Data for tumor model Colon Carcinoma 38 (subcutaneous) in B6D2F1 (BDF1) mice
Conditions: endpoint: median tumor weight (est.), higher = larger tumour
Summary of the method: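 Compound antitumor activity was assessed in mice carrying transplantable tumors. Survival or tumor size was recorded, and each value is the treated-group measurement divided by that of the vehicle-treated control group.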

[1] = dose: 12.5 mg/kg/injection, schedule: Q07DX002 (ip), vehicle: Klucel (hydroxypropylcellulose) (HPC)
[2] = dose: 50.0 mg/kg/injection, schedule: Q07DX002 (ip), vehicle: Klucel (hydroxypropylcellulose) (HPC)
[3] = dose: 25.0 mg/kg/injection, schedule: Q07DX002 (ip), vehicle: Klucel (hydroxypropylcellulose) (HPC)
[4] = dose: 100.0 mg/kg/injection, schedule: Q07DX002 (ip), vehicle: Klucel (hydroxypropylcellulose) (HPC)
[5] = dose: 200.0 mg/kg/injection, schedule: Q07DX002 (ip), vehicle: Klucel (hydroxypropylcellulose) (HPC)
[6] = dose: 400.0 mg/kg/injection, schedule: Q07DX002 (ip), vehicle: Klucel (hydroxypropylcellulose) (HPC)

## C=C1C(=O)C23C(O)CC4C5(C)CCCC4(C(O)OC5)C2C(OC(C)=O)CC1C3O (stereo unspecified)
dose: 8.0 mg/kg/injection, schedule: Q07DX002 (ip), vehicle: Klucel (hydroxypropylcellulose) (HPC)
  T/C: 72 % of control
dose: 8.0 mg/kg/injection, schedule: Q07DX002 (ip), vehicle: saline
  T/C: 124 % of control
dose: 16.0 mg/kg/injection, schedule: Q07DX002 (ip), vehicle: Klucel (hydroxypropylcellulose) (HPC)
  T/C: 72 % of control
dose: 16.0 mg/kg/injection, schedule: Q07DX002 (ip), vehicle: saline
  T/C: 106 % of control
dose: 32.0 mg/kg/injection, schedule: Q07DX002 (ip), vehicle: Klucel (hydroxypropylcellulose) (HPC)
  T/C: 106 % of control
dose: 32.0 mg/kg/injection, schedule: Q07DX002 (ip), vehicle: saline
  T/C: 117 % of control
dose: 64.0 mg/kg/injection, schedule: Q07DX002 (ip), vehicle: Klucel (hydroxypropylcellulose) (HPC)
  T/C: 112 % of control
dose: 64.0 mg/kg/injection, schedule: Q07DX002 (ip), vehicle: saline
  T/C: 101 % of control
dose: 128.0 mg/kg/injection, schedule: Q07DX002 (ip), vehicle: Klucel (hydroxypropylcellulose) (HPC)
  T/C: 79 % of control

## NC(=S)c1cn(C2OC(CO)C(O)C2O)c2ncnc(N)c12 (stereo unspecified)
dose: 1.25 mg/kg/injection, schedule: Q07DX002 (ip), vehicle: suspension in saline
  T/C: 108 % of control
dose: 2.5 mg/kg/injection, schedule: Q07DX002 (ip), vehicle: suspension in saline
  T/C: 81 % of control
dose: 5.0 mg/kg/injection, schedule: Q07DX002 (ip), vehicle: suspension in saline
  T/C: 104 % of control
dose: 10.0 mg/kg/injection, schedule: Q07DX002 (ip), vehicle: suspension in saline
  T/C: 82 % of control

## O=NN(CCF)C(=O)NC1CCCCC1
[1]
  T/C: 77 % of control
[2]
  T/C: 15 % of control

## CC(C)=CCC/C(C)=C/COc1ccc(/C=C2/C(=O)N(O)[C@@H](C)C(=O)N2O)cc1
dose: 6.25 mg/kg/injection, schedule: Q07DX002 (ip), vehicle: saline
  T/C: 262 % of control
dose: 12.5 mg/kg/injection, schedule: Q07DX002 (ip), vehicle: saline
  T/C: 202 % of control
dose: 25.0 mg/kg/injection, schedule: Q07DX002 (ip), vehicle: saline
  T/C: 178 % of control
dose: 50.0 mg/kg/injection, schedule: Q07DX002 (ip), vehicle: saline
  T/C: 154 % of control
dose: 100.0 mg/kg/injection, schedule: Q07DX002 (ip), vehicle: saline
  T/C: 154 % of control

## NC(=O)c1csc(C2OC(CO)C(O)C2O)n1 (stereo unspecified)
dose: 50.0 mg/kg/injection, schedule: Q07DX002 (ip), vehicle: water
  T/C: 154 % of control
dose: 100.0 mg/kg/injection, schedule: Q07DX002 (ip), vehicle: water
  T/C: 121 % of control and 106 % of control
dose: 200.0 mg/kg/injection, schedule: Q07DX002 (ip), vehicle: water
  T/C: 111 % of control and 92 % of control
dose: 400.0 mg/kg/injection, schedule: Q07DX002 (ip), vehicle: water
  T/C: 124 % of control and 104 % of control
dose: 800.0 mg/kg/injection, schedule: Q07DX002 (ip), vehicle: water
  T/C: 72 % of control

## Nc1nc2c(ncn2C2OC(CO)C(O)C2N)c(=O)[nH]1 (stereo unspecified)
dose: 50.0 mg/kg/injection, schedule: Q07DX002 (ip), vehicle: saline with Tween-80
  T/C: 73 % of control
dose: 100.0 mg/kg/injection, schedule: Q07DX002 (ip), vehicle: saline with Tween-80
  T/C: 74 % of control

## COC1C(CO)OC(n2cnc3c(=S)nc(N)[nH]c32)C1O (stereo unspecified)
[1]
  T/C: 98 % of control
[3]
  T/C: 74 % of control
[2]
  T/C: 44 % of control
[4]
  T/C: 118 % of control
[5]
  T/C: 69 % of control
[6]
  T/C: 44 % of control

## ClCCCCCCCCCCc1ccccc1
[1]
  T/C: 83 % of control
dose: 12.5 mg/kg/injection, schedule: Q07DX003 (ip), vehicle: Klucel (hydroxypropylcellulose) (HPC)
  T/C: 77 % of control
[3]
  T/C: 83 % of control
dose: 25.0 mg/kg/injection, schedule: Q07DX003 (ip), vehicle: Klucel (hydroxypropylcellulose) (HPC)
  T/C: 95 % of control
dose: 50.0 mg/kg/injection, schedule: Q07DX003 (ip), vehicle: Klucel (hydroxypropylcellulose) (HPC)
  T/C: 63 % of control
[4]
  T/C: 67 % of control
dose: 100.0 mg/kg/injection, schedule: Q07DX003 (ip), vehicle: Klucel (hydroxypropylcellulose) (HPC)
  T/C: 65 % of control
[5]
  T/C: 80 % of control
dose: 200.0 mg/kg/injection, schedule: Q07DX003 (ip), vehicle: Klucel (hydroxypropylcellulose) (HPC)
  T/C: 90 % of control
[6]
  T/C: 88 % of control
dose: 400.0 mg/kg/injection, schedule: Q07DX003 (ip), vehicle: Klucel (hydroxypropylcellulose) (HPC)
  T/C: 51 % of control

## C=C(OC1C(C)=C2C(C1OC(=O)CCCCCCC)C(C)(OC(C)=O)CC(OC(=O)CCC)C1(O)C2OC(=O)C1(C)O)/C(C)=C/C (stereo unspecified)
dose: 0.21 mg/kg/injection, schedule: Q07DX002 (ip), vehicle: Klucel (hydroxypropylcellulose) (HPC)
  T/C: 35 % of control
dose: 0.84 mg/kg/injection, schedule: Q07DX002 (ip), vehicle: Klucel (hydroxypropylcellulose) (HPC)
  T/C: 82 % of control and 86 % of control and 92 % of control
